# Peptide text beside a SMILES is read from it.
# Columns and labels:
# mushroom tyrosinase = settings: cited from earlier work
# human tyrosinase = molecular target: T1, human tyrosinase (Homo sapiens, UniProt P14679); settings: cited from earlier work
# T1 sequence (P14679 19-529): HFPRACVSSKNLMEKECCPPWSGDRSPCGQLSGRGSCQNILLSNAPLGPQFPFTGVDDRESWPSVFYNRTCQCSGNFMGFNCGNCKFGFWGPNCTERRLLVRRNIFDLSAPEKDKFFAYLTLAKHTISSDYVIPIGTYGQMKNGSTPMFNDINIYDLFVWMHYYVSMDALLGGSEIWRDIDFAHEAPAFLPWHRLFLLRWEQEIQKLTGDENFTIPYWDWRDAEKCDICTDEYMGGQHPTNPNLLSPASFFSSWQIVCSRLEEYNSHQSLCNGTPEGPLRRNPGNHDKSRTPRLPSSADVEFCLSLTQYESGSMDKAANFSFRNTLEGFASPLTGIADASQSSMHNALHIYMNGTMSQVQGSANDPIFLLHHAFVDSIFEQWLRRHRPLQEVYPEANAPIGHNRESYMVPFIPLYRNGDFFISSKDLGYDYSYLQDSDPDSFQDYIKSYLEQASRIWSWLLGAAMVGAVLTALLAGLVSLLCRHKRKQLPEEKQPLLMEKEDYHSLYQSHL
# [1] = type: in vitro ADME
# Description: Human dermatomed skin was obtained from Science Care (Arizona, USA). The skin tissues were excised from the thighs of two male cadavers with age at death of 66 and 57. The skin samples used in the study were without identifier and exempted from ethical review. The Integrity of cadaver skin was checked using visual inspection before use to ensure no pores or breaks in the skin surface were present. In addition, any compromise in skin integrity was identified through observation of a rapid and large increase in the amount of permeated peptide through the skin at the first sampling time point.
# Franz type diffusion cells were used. Human epidermis was mounted between donor and receptor compartments and excessive skin at the sides was trimmed off to minimize lateral diffusion. SC was faced towards the donor compartment and the skin area for permeation was 1.327 square centimeters. The receptor compartment was filled with 5.5 milliliters of 1 millimolar PBS solution containing 1 percent (volume/volume) antibacterial antimycotic solution. Receptor solution was filtered twice to prevent formation of air bubbles beneath the epidermis. […] Permeation was measured over 24 hours.
# The amount of peptide permeated was determined using Shimadzu CBM-20A HPLC system with Agilent ODS C18 column (4.6 millimeters x 250 millimeters x 5 microns, 170 Angstroms). […]
# melasma = settings: cited from earlier work
smiles,measurement,setting,value
"N=C(N)NCCC[C@H](NC(=O)[C@H](CO)NC(=O)[C@H](CCCNC(=N)N)NC(=O)[C@@H](N)Cc1ccc(O)cc1)C(=O)N[C@@H](CCCCN)C(=O)N[C@@H](Cc1ccc(O)cc1)C(=O)N[C@@H](CO)C(=O)N[C@@H](CO)C(=O)N[C@@H](Cc1c[nH]c2ccccc12)C(=O)N[C@@H](Cc1ccc(O)cc1)C(=O)O [Native peptide, decapeptide-12] (H-YRSRKYSSWY-OH)",Competitive inhibition effect compared with hydroquinone,mushroom tyrosinase,stronger competitive inhibition effect
same,Competitive inhibition effect compared with hydroquinone,human tyrosinase,stronger competitive inhibition effect
same,Effect of enhancers on skin permeation,[1],didn't alter skin permeation
same,Efficacy in reducing content of melanin,melasma; 16 weeks of twice daily treatment,more than 50%
same,Safety compared with hydroquinone,melasma; in vivo,safer than hydroquinone
same,Effect in treatment of melasma,"melasma; studies on humans, topical",good efficacy

# Source: US20230391825A1, “ENHANCED SKIN PERMEATION OF A NOVEL PEPTIDE VIA STRUCTURAL MODIFICATION, CHEMICAL ENHANCEMENT, AND MICRONEEDLES” (ESCAPE THERAPEUTICS, INC., priority 2020, published 2023)
